The target of one experiment is Cat L (UniProt P07711). Briefly: Cathepsin enzyme inhibition assay (fluorogenic peptide substrate Z-Val-Val-Arg-AMC), Cathepsin L. The format is biochemical, human and mouse. The settings on record: enzyme 1 nM, substrate 20 μM, pH 6.5; read-out: CatL IC50. In a few lines:
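Fluorogenic cleavage of Z-Val-Val-Arg-AMC (20 μM) by 1 nM Cat L was monitored at ex 360/em 465 nm for 20 min, the linear phase. The buffer was 100 mM potassium phosphate pH 6.5 with 5 mM EDTA and DTT. IC50 values were derived by standard methods, in μM.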

In another experiment the target is Cathepsin S (UniProt P25774). The experiment is described as follows: Cathepsin enzyme inhibition assay (fluorogenic peptide substrate Z-Val-Val-Arg-AMC), Cathepsin S. Type of experiment: biochemical, human and mouse. As to conditions: enzyme 1 nM, substrate 20 μM, pH 6.5; read-out: CatS IC50. The procedure, abridged: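 Compounds were combined with 1 nM human or mouse enzyme, and substrate then started the reaction. The buffer was potassium phosphate (100 mM, pH 6.5) containing EDTA-Na 5 mM, Triton X-100 0.001% and […] 5 mM.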

Consider `CC(C)(C)OC(=O)N1C[C@H](S(=O)(=O)c2ccc(N3CCCCC3)cc2Cl)C[C@H]1C(=O)NC1(C#N)CC1` [Example 121, (2S,4R)-4-(2-Chloro-4-piperidin-1-yl-benzenesulfonyl)-2-(1-cyano-cyclopropylcarbamoyl)-pyrrolidine-1-carboxylic acid tert.-butyl ester], for which the IC50 was 23700 nM at Cat L and 4.1 nM on Cathepsin S.

Turning to `CC(Oc1ccc(S(=O)(=O)[C@@H]2C[C@@H](C(=O)NC3(C#N)CC3)N(C(=O)OC(C)(C)C)C2)c(Cl)c1)C(F)(F)F` (stereo partly drawn) [Example 122, (2S,4R)-4-[2-Chloro-4-(2,2,2-trifluoro-1-methyl-ethoxy)-benzenesulfonyl]-2-(1-cyano-cyclopropylcarbamoyl)-pyrrolidine-1-carboxylic acid tert.-butyl ester], the figures for the IC50 at Cat L and on Cathepsin S were 23800 nM and 9.4 nM, respectively.

In the case of `CC(C)C[C@]1(C(=O)NC2(C#N)CC2)C[C@H](S(C)(=O)=O)[C@@H](c2ccc(F)cc2)N1` [Example 123, (2R,4S,5R)-5-(4-Fluoro-phenyl)-2-isobutyl-4-methanesulfonyl-pyrrolidine-2-carboxylic acid (1-cyano-cyclopropyl)-amide], the IC50 on Cat L is at least 25000 nM; on Cathepsin S it was 2610 nM.

On to `CC(C)(C)OC(=O)N1C[C@H](S(=O)(=O)c2ccc(F)cc2Cl)C[C@H]1C(=O)NC1(C#N)CC1` [Example 124, (2S,4R)-4-(2-Chloro-4-fluoro-benzenesulfonyl)-2-(1-cyano-cyclopropylcarbamoyl)-pyrrolidine-1-carboxylic acid tert.-butyl ester], for which the results for the IC50 on Cat L and on Cathepsin S were at least 25000 nM and 12.5 nM, respectively.

Take `CC(C)C[C@]1(C(=O)NC2(C#N)CC2)C[C@H](S(C)(=O)=O)[C@@H](c2ccc(F)cc2)N1C(=O)OC(C)(C)C` [Example 125, (2R,4S,5R)-2-(1-Cyano-cyclopropylcarbamoyl)-5-(4-fluoro-phenyl)-2-isobutyl-4-methanesulfonyl-pyrrolidine-1-carboxylic acid tert.-butyl ester]: the IC50 was at least 25000 nM at Cat L and 195 nM at Cathepsin S.

For the compound `CC(C)C[C@]1(C(=O)NC2(C#N)CC2)C[C@H](S(=O)(=O)c2ccccc2)[C@@H](c2ccc(F)cc2)N1` [Example 126, (2R,4S,5R)-4-Benzenesulfonyl-5-(4-fluoro-phenyl)-2-isobutyl-pyrrolidine-2-carboxylic acid (1-cyano-cyclopropyl)-amide], the IC50 on Cat L was at least 25000 nM; on Cathepsin S it was 1250 nM.

For the compound `N#CC1(NC(=O)[C@@H]2C[C@@H](S(=O)(=O)c3ccc(N4CCCCC4)cc3Cl)CN2)CC1` [Example 127, (2S,4R)-4-(2-Chloro-4-piperidin-1-yl-benzenesulfonyl)-pyrrolidine-2-carboxylic acid (1-cyano-cyclopropyl)-amide], the IC50 at Cat L was determined as 6000 nM; on Cathepsin S, 2 nM.

For `N#CC1(NC(=O)[C@@H]2C[C@@H](S(=O)(=O)c3ccc(-n4cccn4)cc3Cl)CN2)CC1` [Example 128, (2S,4R)-4-(2-Chloro-4-pyrazol-1-yl-benzenesulfonyl)-pyrrolidine-2-carboxylic acid (1-cyano-cyclopropyl)-amide], the IC50 amounted to 17300 nM on Cat L and 1.4 nM on Cathepsin S.

For `CC(Oc1ccc(S(=O)(=O)[C@H]2CN[C@H](C(=O)NC3(C#N)CC3)C2)c(Cl)c1)C(F)(F)F` (stereo partly drawn) [Example 129, (2S,4R)-4-[2-Chloro-4-(2,2,2-trifluoro-1-methyl-ethoxy)-benzenesulfonyl]-pyrrolidine-2-carboxylic acid (1-cyano-cyclopropyl)-amide], the results for the IC50 at Cat L and at Cathepsin S were 20400 nM and 8 nM, respectively.

Consider `CC(C)(C)OC(=O)N1C[C@H](S(=O)(=O)c2ccc(N3CCC(F)(F)C3)cc2Cl)C[C@H]1C(=O)NC1(C#N)CC1` [Example 130, (2S,4R)-4-[2-Chloro-4-(3,3-difluoro-pyrrolidin-1-yl)-benzenesulfonyl]-2-(1-cyano-cyclopropylcarbamoyl)-pyrrolidine-1-carboxylic acid tert.-butyl ester], for which the IC50 at Cat L was at least 25000 nM; on Cathepsin S, 2.4 nM.

For the compound `CC(=O)N1C[C@H](S(=O)(=O)c2ccc(-n3cccn3)cc2Cl)C[C@H]1C(=O)NC1(C#N)CC1` [Example 131, (2S,4R)-1-Acetyl-4-(2-chloro-4-pyrazol-1-yl-benzenesulfonyl)-pyrrolidine-2-carboxylic acid (1-cyano-cyclopropyl)-amide formiate], the results for the IC50 on Cat L and on Cathepsin S were 33900 nM and 0.9 nM, respectively.

As for `CC(=O)N1C[C@H](S(=O)(=O)c2ccc(OC(C)C(F)(F)F)cc2Cl)C[C@H]1C(=O)NC1(C#N)CC1` (stereo partly drawn) [Example 132, (2S,4R)-1-Acetyl-4-[2-chloro-4-(2,2,2-trifluoro-1-methyl-ethoxy)-benzenesulfonyl]-pyrrolidine-2-carboxylic acid (1-cyano-cyclopropyl)-amide], the 50% inhibitory concentration (IC50) at Cat L worked out at 35000 nM; on Cathepsin S, 3.8 nM.

Regarding `CC(=O)N1C[C@H](S(=O)(=O)c2ccc(N3CCCCC3)cc2Cl)C[C@H]1C(=O)NC1(C#N)CC1` [Example 133, (2S,4R)-1-Acetyl-4-(2-chloro-4-piperidin-1-yl-benzenesulfonyl)-pyrrolidine-2-carboxylic acid (1-cyano-cyclopropyl)-amide formiate], the IC50 at Cat L is 23400 nM; on Cathepsin S it was 0.9 nM.

Take `CC(=O)N1C[C@H](S(=O)(=O)c2ccc(F)cc2Cl)C[C@H]1C(=O)NC1(C#N)CC1` [Example 134, (2S,4R)-1-Acetyl-4-(2-chloro-4-fluoro-benzenesulfonyl)-pyrrolidine-2-carboxylic acid (1-cyano-cyclopropyl)-amide]: the IC50 was at least 25000 nM on Cat L and 6.2 nM at Cathepsin S.

For `N#CC1(NC(=O)[C@@H]2C[C@@H](S(=O)(=O)c3ccc(N4CCCCC4)cc3Cl)CN2C(=O)C2(C(F)(F)F)CC2)CC1` [Example 135, (2S,4R)-4-(2-Chloro-4-piperidin-1-yl-benzenesulfonyl)-1-(1-trifluoromethyl-cyclopropanecarbonyl)-pyrrolidine-2-carboxylic acid (1-cyano-cyclopropyl)-amide], the half-inhibitory concentration (IC50) at Cat L turned out to be 3150 nM; at Cathepsin S, 0.3 nM.

With `N#CC1(NC(=O)[C@@H]2C[C@@H](S(=O)(=O)c3ccc(N4CCC(F)(F)C4)cc3Cl)CN2)CC1` [Example 136, (2S,4R)-4-[2-Chloro-4-(3,3-difluoro-pyrrolidin-1-yl)-benzenesulfonyl]-pyrrolidine-2-carboxylic acid (1-cyano-cyclopropyl)-amide formiate], the IC50 on Cat L is 12600 nM; at Cathepsin S, 2.2 nM.

With `COC(=O)c1ccc(C(=O)N2C[C@H](S(=O)(=O)c3ccccc3C(F)(F)F)C[C@H]2C(=O)NCC#N)cc1` [Example 137, 4-[(2S,4R)-2-(Cyanomethyl-carbamoyl)-4-(2-trifluoromethyl-benzenesulfonyl)-pyrrolidine-1-carbonyl]-benzoic acid methyl ester], the values for the IC50 on Cat L and on Cathepsin S were at least 25000 nM and 1 nM, respectively.

`CCN1CCN(c2ccc(S(=O)(=O)[C@@H]3C[C@@H](C(=O)NC4(C#N)CC4)N(C(=O)OC(C)(C)C)C3)c(Cl)c2)CC1` [Example 138, (2S,4R)-4-[2-Chloro-4-(4-ethyl-piperazin-1-yl)-benzenesulfonyl]-2-(1-cyano-cyclopropylcarbamoyl)-pyrrolidine-1-carboxylic acid tert.-butyl ester]: the results for the concentration for half-maximal inhibition (IC50) on Cat L and on Cathepsin S were 28600 nM and 3.4 nM, respectively.

For the compound `CC(C)(C)OC(=O)N1C[C@H](S(=O)(=O)c2ccc(OCCN3CCCCC3)cc2Cl)C[C@H]1C(=O)NC1(C#N)CC1` [Example 139, (2S,4R)-4-[2-Chloro-4-(2-piperidin-1-yl-ethoxy)-benzenesulfonyl]-2-(1-cyano-cyclopropylcarbamoyl)-pyrrolidine-1-carboxylic acid tert.-butyl ester], the IC50 on Cat L is at least 25000 nM; on Cathepsin S it was 7.8 nM.

Turning to `CCN1CCN(c2ccc(S(=O)(=O)[C@H]3CN[C@H](C(=O)NC4(C#N)CC4)C3)c(Cl)c2)CC1` [Example 140, (2S,4R)-4-[2-Chloro-4-(4-ethyl-piperazin-1-yl)-benzenesulfonyl]-pyrrolidine-2-carboxylic acid (1-cyano-cyclopropyl)-amide formiate], the figures for the IC50 on Cat L and at Cathepsin S were 24500 nM and 5.9 nM, respectively.

As to `CCN1CCN(c2ccc(S(=O)(=O)[C@@H]3C[C@@H](C(=O)NC4(C#N)CC4)N(C(=O)C4(C(F)(F)F)CC4)C3)c(Cl)c2)CC1` [Example 141, (2S,4R)-4-[2-Chloro-4-(4-ethyl-piperazin-1-yl)-benzenesulfonyl]-1-(1-trifluoromethyl-cyclopropanecarbonyl)-pyrrolidine-2-carboxylic acid (1-cyano-cyclopropyl)-amide], the figures for the half-inhibitory concentration (IC50) on Cat L and on Cathepsin S were 3460 nM and 0.6 nM, respectively.

On to `CCN1CCN(c2ccc(S(=O)(=O)[C@@H]3C[C@@H](C(=O)NC4(C#N)CC4)N(C(=O)C4(C(F)(F)F)CC4)C3)c(Cl)c2)CC1` [Example 142, (2S,4R)-4-[2-Chloro-4-(4-ethyl-piperazin-1-yl)-benzenesulfonyl]-1-(1-trifluoromethyl-cyclopropanecarbonyl)-pyrrolidine-2-carboxylic acid (1-cyano-cyclopropyl)-amide formiate], for which the IC50 on Cat L was 2480 nM; at Cathepsin S it was 0.3 nM.

On to `CCN1CCN(c2ccc(S(=O)(=O)[C@@H]3C[C@@H](C(=O)NC4(C#N)CC4)N(C=O)C3)c(Cl)c2)CC1` [Example 143, (2S,4R)-4-[2-Chloro-4-(4-ethyl-piperazin-1-yl)-benzenesulfonyl]-1-formyl-pyrrolidine-2-carboxylic acid (1-cyano-cyclopropyl)-amide], for which the IC50 at Cat L was determined as 28100 nM; at Cathepsin S, 4.3 nM.

One may read the IC50 as the midpoint of a concentration-inhibition curve.
